Where “and” joins values, the source holds several entries; their conditions need not be identical. Identical values can stand only once. Like-named read-outs stand apart in the source and are kept apart here.
Experiments:
[1] = tested on: virus-induced cell fusion (gp120-CD4 dependent); test: Anti-syncytial cocultivation assay: H9 cells chronically infected with HIV-1 RF mixed with uninfected C8166 cells; type: cell-based, HIV-1 RF; human H9 and C8166 cells; conditions: for Syncytia after 2 hrs: virus control ++; for Syncytia after 3 1/2 hrs / Syncytia after 5 1/2 hrs: virus control +++
Text: Syncytial cell formation depends on the interaction of gp120, expressed in the membranes of infected cells, with the CD4 antigen on neighboring cells (Camerini and Seed, 1990). We utilized a cell cocultivation model to examine the effect of the stilbene disulfonic acids on the gp120-CD4 dependent fusion process. This system consists of mixing H9 cells chronically infected with HIV-1 RF (gp120^+ cells) with uninfected C8166 cells (CD4^+ cells) as the fusion indicator. In this assay, cell fusion occurred within 2 to 3 hours of mixing at 37° C. and substantial syncytia were observed after a further 3 to 4 hours (FIG. 1, Panel A). […] These findings with the sulfated polysaccharides were consistent with a previous report (Montefiori et al., 1990).
The effect of the stilbene disulfonic acids and various sulfated polysaccharides on virus-induced cell fusion. In this assay, 10^5 H9 cells, chronically infected with the HIV-1 strain RF, were cocultured with 10^5 uninfected C8166 cells in the absence and presence of the test compounds. FIG. 1A: Positive control, no compound addition; FIG. 1B: 100 μg/ml DIDS; FIG. 1C: 100 μg/ml SITS; FIG. 1D: positive control; FIG. 1E: 10 μg/ml 500,000 MW dextran sulfate; FIG. 1F: 250 μg/ml heparin.
CD4^+ uninfected C8166 cells were seeded into 24-well trays ([…]) that contained growth medium and various concentrations of test compounds. H9 cells, chronically infected with the RF strain of HIV-1, were washed and then added as a source of gp120^+ cells at 10^5 cells/well except for the noncytopathic control: those wells received uninfected H9 cells. The trays were then incubated at 37° C. and the cocultures were observed between 1 and 6 hours p.i. Syncytia were recorded on photographic film.
Protocol: H9 cells chronically infected with RF strain of HIV-1 and uninfected C8166 cells were mixed in the presence of either DIDS, SITS, H2 DIDS, dextran sulfate, or heparin (100 μg/ml). The cells were observed after 2, 31/2 and 51/2 hours and the amount of cell fusion quantified.
Protocol: H9 cells chronically inected with HIV-1 and uninfected C8166 cells were mixed in the presence of either DIDS, SITS, H2 DIDS, dextran sulfate, heparin (at 100 μg/ml), OKT4 or OKT4A (at a 1/50 dilution). The cells were observed after 4 hours and the amount of cell fusion quantitied. OKT4 and OKT4A are monoclonal antibodies that bined the CD4 cell surface antigen.

[2] = tested on: MT-4 cells; test: Cytotoxicity in MT-4 cells, tetrazolium reduction assay; type: cell-based, human
[3] = tested on: HIV-1; test: Back titration of cell-free supernatants (infectivity) on fresh uninfected JM cells; type: cell-based, HIV-1 (human T cell line JM); conditions: for viral infectivity in the cell-free supernatants: data not shown
Method: Protocol: JM cells were infected with HIV-1 to give a multiplicity of infection of 0.001. Virus adsorption was for 2 hours at room temperature. The cells were washed and distributed into wells containing different concentrations of test compounds and incubated. After 2 days the cells were observed and syncytia were counted. The cell-free supernatant fluids were harvested at 4 and 6 days post infection and assayed for levels of p24 viral core antigen and after 6 days the supernatants were also titrated to determine levels of infectivity.
*Syncytia-forming unit; cellfree supernatants from virus infected cells
having received the indicated concentration of compounds were incubated
with fresh uninfected JM cells and syncytia were scored to determine the
number of infectious units/ml.
supernatants from virusinfected control cells not having received drug

[4] = tested on: HIV-1 infected JM cells; test: Treatment of HIV-1 infected JM cells with DIDS, SITS and ddC; type: cell-based, HIV-1 (human T cell line JM)
Method: Protocol: JM cells were infected with HIV to give approximately 100 syncytia after 3 days. Virus adsorption was at room temperature for 2 hours. The cells were then washed thoroughly and distributed in wells of a tissue culture plate at a concentration of 1×10^5 cells/well. At 24 hours post infection either DIDS (100 μg/ml), SITS (100 μg/ml), or ddC (5 μM) were added to wells having infected cells. As virus controls, some wells had no drug added. At 42 hours post infection other wells received either ddC (5 μM), SITS (100 μg/ml), or DIDS (100, 50, 25, 12.5, 6.25 μg/ml). Syncytia were scored at 3 and 4 days post-infection and the supernatant fluids were harvested after 3 and 4 days for p24 core antigen determination.

[5] = tested on: HIV-1 strain RF in MT-4 cells; test: Growth of HIV-1 RF in MT-4 cells; type: cell-based, HIV-1 (human MT-4 cells)
Text: When evaluated in the human T cell line JM acutely infected with the GB8 virus, DIDS, H2 DIDS and SITS (Table I) suppressed virus-induced multinucleated giant cell formation (syncytia). […] We also examined the antiviral properties of these compounds in a second host-cell/virus system, i.e., the highly CD4+ C8166 cells infected with the Haitian strain of HIV-1, RF.
The cell lines used were the semi-mature human lymphoblastoid leukemia T cell line JM, the human T-lymphoblastoid C8166 cell line, the human cutaneous T cell lymphoma line H9 and, the human T cell transformed line MT-4. Stocks of HIV-1 strains RF and GB8 (kindly provided by Dr. Graham Farrar, Center for Applied Microbiological Research, Porton Dawn, England) were prepared from chronically infected H9 cells and acutely infected JM cells, respectively. Virus stocks consisted of cell-free growth medium (RPMI 1640 plus 10% fetal calf serum) containing freshly shed virus. Virus titres were determined by a standard plaque reduction assay.

[6] = tested on: virus-induced cell fusion (gp120-CD4 dependent); test: Anti-syncytial cocultivation assay: H9 cells chronically infected with HIV-1 RF mixed with uninfected C8166 cells; type: cell-based, HIV-1 RF; human H9 and C8166 cells; conditions: 200 μg/ml; Panel C

O=S(=O)(O)c1cc(N=C=S)ccc1CCc1ccc(N=C=S)cc1S(=O)(=O)O [H2 DIDS, 4,4'-diisothiocyanatodihydrostilbene-2,2'-disulfonic acid]
Syncytia after 2 hrs ([1]; 100 μg/ml): 0 | Syncytia after 3 1/2 hrs ([1]; 100 μg/ml): 0 | Syncytia after 5 1/2 hrs ([1]; 100 μg/ml): 0 | cytotoxicity at antiviral concentrations [2]: noncytotoxic

O=S(=O)(O)c1cc(N=C=S)ccc1C=Cc1ccc(N=C=S)cc1S(=O)(=O)O [DIDS, 4,4'-diisothiocyanatostilbene-2,2'-disulfonic acid]
cell fusion / syncytia ([1]; 100 μg/ml, at the time of cell mixing): completely prevented cell fusion | Syncytia after 2 hrs ([1]; 100 μg/ml): 0 | Syncytia after 3 1/2 hrs ([1]; 100 μg/ml): 0 | Syncytia after 5 1/2 hrs ([1]; 100 μg/ml): 0 | protection of C8166 cells ([1]; 200 μg/ml, 5 days post-mixing, not shown): totally protected the C8166 cells | blocking virus-induced cell fusion and death ([1]; summary statement): siginificant antiviral activity | Back titration of cell-free supernatants at 6 days p.i. ([3]; 12.5 μg/ml): 2.4 × 10^3 SFUs/ml | Back titration of cell-free supernatants at 6 days p.i. ([3]; 50 μg/ml): < 10^1 SFUs/ml | Back titration of cell-free supernatants at 6 days p.i. ([3]; 100 μg/ml): < 10^1 SFUs/ml | viral infectivity in the cell-free supernatants [3]: absence of viral infectivity | cytotoxicity at antiviral concentrations [2]: noncytotoxic | Mean syncytia/well 3 days p.i. ([4]; 6 μg/ml, added 42 hr): As VC | Mean syncytia/well 4 days p.i. ([4]; 6 μg/ml, added 42 hr): As VC | p24 antigen 3 days p.i. ([4]; 6 μg/ml, added 42 hr): 18000 pg/mL | p24 antigen 4 days p.i. ([4]; 6 μg/ml, added 42 hr): 34000 pg/mL | Mean syncytia/well 3 days p.i. ([4]; 12 μg/ml, added 42 hr): As VC | Mean syncytia/well 4 days p.i. ([4]; 12 μg/ml, added 42 hr): As VC | p24 antigen 3 days p.i. ([4]; 12 μg/ml, added 42 hr): 210000 pg/mL | p24 antigen 4 days p.i. ([4]; 12 μg/ml, added 42 hr): 390000 pg/mL | Mean syncytia/well 3 days p.i. ([4]; 25 μg/ml, added 42 hr): As VC | Mean syncytia/well 4 days p.i. ([4]; 25 μg/ml, added 42 hr): As VC | p24 antigen 3 days p.i. ([4]; 25 μg/ml, added 42 hr): 15000 pg/mL | p24 antigen 4 days p.i. ([4]; 25 μg/ml, added 42 hr): 59000 pg/mL | Mean syncytia/well 3 days p.i. ([4]; 50 μg/ml, added 42 hr): > 80 | Mean syncytia/well 4 days p.i. ([4]; 50 μg/ml, added 42 hr): 100 | p24 antigen 3 days p.i. ([4]; 50 μg/ml, added 42 hr): 19200 pg/mL | p24 antigen 4 days p.i. ([4]; 50 μg/ml, added 42 hr): 63000 pg/mL | Mean syncytia/well 3 days p.i. ([4]; 100 μg/ml, added 24 hr): 0 | Mean syncytia/well 4 days p.i. ([4]; 100 μg/ml, added 24 hr): 20 | p24 antigen 3 days p.i. ([4]; 100 μg/ml, added 24 hr): 6100 pg/mL | p24 antigen 4 days p.i. ([4]; 100 μg/ml, added 24 hr): 15800 pg/mL | Mean syncytia/well 3 days p.i. ([4]; 100 μg/ml, added 42 hr): 34 | Mean syncytia/well 4 days p.i. ([4]; 100 μg/ml, added 42 hr): 70 | p24 antigen 3 days p.i. ([4]; 100 μg/ml, added 42 hr): 19800 pg/mL | p24 antigen 4 days p.i. ([4]; 100 μg/ml, added 42 hr): 20900 pg/mL | activity at 6 µg/mL ([4]; Human immunodeficiency virus 1, 72 h, 6 μg/ml, added 42 hr, read-out: p24 antigen 3 days p.i., % control): 38% | activity at 12 µg/mL ([4]; Human immunodeficiency virus 1, 72 h, 12 μg/ml, added 42 hr, read-out: p24 antigen 3 days p.i., % control): > 100% | activity at 25 µg/mL ([4]; Human immunodeficiency virus 1, 72 h, 25 μg/ml, added 42 hr, read-out: p24 antigen 3 days p.i., % control): 32% | activity at 50 µg/mL ([4]; Human immunodeficiency virus 1, 72 h, 50 μg/ml, added 42 hr, read-out: p24 antigen 3 days p.i., % control): 41% | activity at 100 µg/mL ([4]; Human immunodeficiency virus 1, 72 h, 100 μg/ml, added 24 hr, read-out: p24 antigen 3 days p.i., % control): 13% | activity at 100 µg/mL ([4]; Human immunodeficiency virus 1, 72 h, 100 μg/ml, added 42 hr, read-out: p24 antigen 3 days p.i., % control): 42% | activity at 6 µg/mL ([4]; Human immunodeficiency virus 1, 96 h, 6 μg/ml, added 42 hr, read-out: p24 antigen 4 days p.i., % control): 38% | activity at 12 µg/mL ([4]; Human immunodeficiency virus 1, 96 h, 12 μg/ml, added 42 hr, read-out: p24 antigen 4 days p.i., % control): 44% | activity at 25 µg/mL ([4]; Human immunodeficiency virus 1, 96 h, 25 μg/ml, added 42 hr, read-out: p24 antigen 4 days p.i., % control): 66% | activity at 50 µg/mL ([4]; Human immunodeficiency virus 1, 96 h, 50 μg/ml, added 42 hr, read-out: p24 antigen 4 days p.i., % control): 70% | activity at 100 µg/mL ([4]; Human immunodeficiency virus 1, 96 h, 100 μg/ml, added 24 hr, read-out: p24 antigen 4 days p.i., % control): 18% | activity at 100 µg/mL ([4]; Human immunodeficiency virus 1, 96 h, 100 μg/ml, added 42 hr, read-out: p24 antigen 4 days p.i., % control): 23% | growth of RF in MT-4 cells / antiviral activity [5]: blocked the growth of RF

CC(=O)Nc1ccc(C=Cc2ccc(N=C=S)cc2S(=O)(=O)O)c(S(=O)(=O)O)c1 [SITS, 4-acetamido-4'-isothiocyanatostilbene-2,2'-disulfonic acid]
cell fusion / syncytia [6]: had no effect | Back titration of cell-free supernatants at 6 days p.i. ([3]; 25 μg/ml): 1.9 × 10^3 SFUs/ml and 2.5 × 10^3 SFUs/ml | Back titration of cell-free supernatants at 6 days p.i. ([3]; 100 μg/ml): < 10^1 SFUs/ml | viral infectivity in the cell-free supernatants [3]: absence of viral infectivity | Mean syncytia/well 3 days p.i. ([4]; 100 μg/ml, added 24 hr): As VC | Mean syncytia/well 4 days p.i. ([4]; 100 μg/ml, added 24 hr): As VC | p24 antigen 3 days p.i. ([4]; 100 μg/ml, added 24 hr): 18000 pg/mL | p24 antigen 4 days p.i. ([4]; 100 μg/ml, added 24 hr): 62500 pg/mL | Mean syncytia/well 3 days p.i. ([4]; 100 μg/ml, added 42 hr): As VC | Mean syncytia/well 4 days p.i. ([4]; 100 μg/ml, added 42 hr): As VC | p24 antigen 3 days p.i. ([4]; 100 μg/ml, added 42 hr): 7000 pg/mL | p24 antigen 4 days p.i. ([4]; 100 μg/ml, added 42 hr): 95000 pg/mL | activity at 100 µg/mL ([4]; Human immunodeficiency virus 1, 72 h, read-out: p24 antigen 3 days p.i., % control, 100 μg/ml, added 24 hr): 38% | activity at 100 µg/mL ([4]; Human immunodeficiency virus 1, 72 h, read-out: p24 antigen 3 days p.i., % control, 100 μg/ml, added 42 hr): 15% | activity at 100 µg/mL ([4]; Human immunodeficiency virus 1, 96 h, read-out: p24 antigen 4 days p.i., % control, 100 μg/ml, added 24 hr): 70% | activity at 100 µg/mL ([4]; Human immunodeficiency virus 1, 96 h, read-out: p24 antigen 4 days p.i., % control, 100 μg/ml, added 42 hr): > 100% | growth of RF in MT-4 cells / antiviral activity [5]: weak antiviral activity
